pKi: −log10 of the molar value. Like-named read-outs stand apart in the source and are kept apart here.
What was measured:
α2A = target: T1, α2A (Homo sapiens, UniProt P08913); experiment: competitive radioligand binding, HEK293 membranes
T1 construct: gene ADRA2A; full-length receptor; HEK293 cell membranes
Text: competitive radioligand binding, HEK293 membranes on α2A

α2C = target: T2, α2C (Homo sapiens, UniProt P18825); experiment: competitive radioligand binding, HEK293 membranes
T2 construct: gene ADRA2C; full-length receptor; HEK293 cell membranes
T2 sequence (P18825 whole entry): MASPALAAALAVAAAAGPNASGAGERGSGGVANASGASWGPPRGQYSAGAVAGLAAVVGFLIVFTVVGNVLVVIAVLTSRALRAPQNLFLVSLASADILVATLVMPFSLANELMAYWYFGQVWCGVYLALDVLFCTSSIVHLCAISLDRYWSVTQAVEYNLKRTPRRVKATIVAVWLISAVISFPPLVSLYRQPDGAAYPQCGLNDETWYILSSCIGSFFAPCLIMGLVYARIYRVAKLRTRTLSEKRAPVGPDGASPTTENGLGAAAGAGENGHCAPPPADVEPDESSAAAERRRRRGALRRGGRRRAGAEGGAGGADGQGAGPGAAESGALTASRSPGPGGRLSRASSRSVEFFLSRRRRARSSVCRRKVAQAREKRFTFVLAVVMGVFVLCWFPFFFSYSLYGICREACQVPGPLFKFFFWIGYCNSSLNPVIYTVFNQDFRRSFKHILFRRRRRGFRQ
Text: competitive radioligand binding, HEK293 membranes on α2C

CHRM5 = target: T3, CHRM5 (Homo sapiens, UniProt P08912); experiment: cell-based; parameters: PRESTO-Tango beta-arrestin2 recruitment, luciferase luminescence, concentration-response; conditions: HTLA, Assay=Tango, agonist mode, % of control agonist
T3 sequence (P08912 1-532): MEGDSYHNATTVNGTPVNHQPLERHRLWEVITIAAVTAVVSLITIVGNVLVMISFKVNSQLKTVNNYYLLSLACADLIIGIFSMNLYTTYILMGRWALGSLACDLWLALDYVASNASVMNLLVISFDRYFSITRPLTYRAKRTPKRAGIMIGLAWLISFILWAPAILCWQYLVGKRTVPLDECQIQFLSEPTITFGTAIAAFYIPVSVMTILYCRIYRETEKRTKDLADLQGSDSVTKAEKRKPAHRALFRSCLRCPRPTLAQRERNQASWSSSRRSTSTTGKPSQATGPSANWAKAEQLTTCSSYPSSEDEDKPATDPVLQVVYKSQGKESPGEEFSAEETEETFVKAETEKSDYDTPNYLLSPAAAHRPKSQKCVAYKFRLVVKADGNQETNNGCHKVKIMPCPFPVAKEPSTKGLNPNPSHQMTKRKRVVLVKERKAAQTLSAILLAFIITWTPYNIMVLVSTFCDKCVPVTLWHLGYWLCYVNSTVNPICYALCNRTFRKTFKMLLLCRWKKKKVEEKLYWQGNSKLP
Description: (§1) Off-target agonism across the human GPCRome was profiled using PRESTO-Tango, following established protocols with minor adaptations [10]–[12]. […] After ~6 h recovery, cells were transfected with 20 ng plasmid DNA per well and incubated overnight. The next day, 10 µL of test compound (prepared in DMEM + 1% dFBS) was added, and plates were incubated overnight. Media and compounds were removed, and 20 µL per well of Bright-Glo luciferase reagent diluted in assay buffer (Hank’s Balanced Salt Solution (HBSS), 20 mM HEPES, pH 7.4) was added. After 20 min at room temperature (dark), luminescence was recorded. Each plate included the dopamine D2 receptor (DRD2) stimulated with 100 nM quinpirole as a positive control. For the GPCRome screen, each receptor was tested in quadruplicate at 0 and 10 µM compound (final). Responses were expressed as fold change relative to the basal (0 µM) condition. Follow-up concentration–response assays were performed under identical conditions except that serial dilutions of compounds (maximum ~30 µM, final) were added to generate full concentration–response curves.

HRH4 = HRH4 (Homo sapiens, UniProt Q9H3N8); experiment: cell-based; parameters: PRESTO-Tango beta-arrestin2 recruitment, luciferase luminescence, concentration-response; conditions: HTLA, Assay=Tango, agonist mode, % of control agonist
Chain of HRH4 (Q9H3N8 whole entry): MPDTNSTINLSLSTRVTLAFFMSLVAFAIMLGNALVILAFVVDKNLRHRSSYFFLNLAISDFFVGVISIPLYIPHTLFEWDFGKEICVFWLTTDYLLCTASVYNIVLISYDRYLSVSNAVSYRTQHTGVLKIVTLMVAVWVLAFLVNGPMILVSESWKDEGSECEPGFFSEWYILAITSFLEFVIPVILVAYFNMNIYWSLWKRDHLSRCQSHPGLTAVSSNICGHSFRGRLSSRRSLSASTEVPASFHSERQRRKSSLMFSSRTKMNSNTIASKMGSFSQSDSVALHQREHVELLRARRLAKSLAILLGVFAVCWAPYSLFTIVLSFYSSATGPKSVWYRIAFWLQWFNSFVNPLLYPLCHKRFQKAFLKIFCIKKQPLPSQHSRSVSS
Description: as §1

CHRM3 = CHRM3 (Homo sapiens, UniProt P20309); experiment: cell-based; parameters: PRESTO-Tango beta-arrestin2 recruitment, luciferase luminescence, concentration-response; conditions: HTLA, Assay=Tango, agonist mode, % of control agonist
Chain of CHRM3 (P20309 whole entry): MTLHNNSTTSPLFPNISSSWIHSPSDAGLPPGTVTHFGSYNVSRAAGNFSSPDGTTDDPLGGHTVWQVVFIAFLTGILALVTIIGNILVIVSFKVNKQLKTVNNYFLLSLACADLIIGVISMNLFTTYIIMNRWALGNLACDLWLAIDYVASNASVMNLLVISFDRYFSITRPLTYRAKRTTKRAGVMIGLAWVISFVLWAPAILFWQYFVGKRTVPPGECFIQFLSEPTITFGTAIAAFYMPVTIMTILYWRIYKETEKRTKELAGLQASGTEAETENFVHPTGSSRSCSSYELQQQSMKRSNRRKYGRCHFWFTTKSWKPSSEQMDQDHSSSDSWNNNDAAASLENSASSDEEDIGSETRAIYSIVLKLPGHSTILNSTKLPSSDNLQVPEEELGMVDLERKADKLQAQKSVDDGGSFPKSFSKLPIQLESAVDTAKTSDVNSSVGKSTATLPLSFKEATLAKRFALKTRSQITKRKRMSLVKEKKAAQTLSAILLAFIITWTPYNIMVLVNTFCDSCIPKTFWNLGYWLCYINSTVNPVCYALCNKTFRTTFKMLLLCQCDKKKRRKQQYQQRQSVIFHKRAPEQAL
Description: as §1

CHRM4 = target: T4, CHRM4 (Homo sapiens, UniProt P08173); experiment: cell-based; parameters: PRESTO-Tango beta-arrestin2 recruitment, luciferase luminescence, concentration-response; conditions: HTLA, Assay=Tango, agonist mode, % of control agonist
T4 sequence (P08173 1-479): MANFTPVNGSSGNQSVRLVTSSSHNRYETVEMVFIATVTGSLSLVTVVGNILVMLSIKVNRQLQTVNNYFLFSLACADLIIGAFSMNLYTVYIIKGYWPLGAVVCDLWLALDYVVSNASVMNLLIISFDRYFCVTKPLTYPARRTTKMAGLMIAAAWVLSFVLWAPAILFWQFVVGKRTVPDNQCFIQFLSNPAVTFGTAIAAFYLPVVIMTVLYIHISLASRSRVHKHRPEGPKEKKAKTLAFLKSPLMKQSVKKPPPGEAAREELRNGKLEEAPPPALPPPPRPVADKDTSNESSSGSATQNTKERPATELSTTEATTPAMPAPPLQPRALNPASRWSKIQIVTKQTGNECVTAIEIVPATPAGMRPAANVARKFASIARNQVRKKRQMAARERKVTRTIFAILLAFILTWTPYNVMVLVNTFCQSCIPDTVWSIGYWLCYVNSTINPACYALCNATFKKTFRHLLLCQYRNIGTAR
Description: as §1

CHRM1 = target: T5, CHRM1 (Homo sapiens, UniProt P11229); experiment: cell-based; parameters: PRESTO-Tango beta-arrestin2 recruitment, luciferase luminescence, concentration-response; conditions: HTLA, Assay=Tango, agonist mode, % of control agonist
T5 sequence (P11229 1-460): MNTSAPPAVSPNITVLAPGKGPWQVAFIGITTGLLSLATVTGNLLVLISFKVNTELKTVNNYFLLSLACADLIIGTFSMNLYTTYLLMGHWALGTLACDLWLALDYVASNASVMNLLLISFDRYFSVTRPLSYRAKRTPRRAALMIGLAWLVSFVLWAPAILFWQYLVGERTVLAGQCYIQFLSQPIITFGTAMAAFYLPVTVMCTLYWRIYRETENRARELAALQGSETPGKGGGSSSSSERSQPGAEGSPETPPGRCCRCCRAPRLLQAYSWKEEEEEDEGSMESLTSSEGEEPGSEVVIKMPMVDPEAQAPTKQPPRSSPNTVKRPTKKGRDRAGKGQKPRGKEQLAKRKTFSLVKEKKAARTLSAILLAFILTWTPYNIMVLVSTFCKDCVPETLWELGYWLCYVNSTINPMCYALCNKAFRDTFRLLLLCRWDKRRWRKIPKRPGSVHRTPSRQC
Description: as §1

HRH3 = HRH3 (Homo sapiens, UniProt Q9Y5N1); experiment: cell-based; parameters: PRESTO-Tango beta-arrestin2 recruitment, luciferase luminescence, concentration-response; conditions: HTLA, Assay=Tango, agonist mode, % of control agonist
Chain of HRH3 (Q9Y5N1 whole entry): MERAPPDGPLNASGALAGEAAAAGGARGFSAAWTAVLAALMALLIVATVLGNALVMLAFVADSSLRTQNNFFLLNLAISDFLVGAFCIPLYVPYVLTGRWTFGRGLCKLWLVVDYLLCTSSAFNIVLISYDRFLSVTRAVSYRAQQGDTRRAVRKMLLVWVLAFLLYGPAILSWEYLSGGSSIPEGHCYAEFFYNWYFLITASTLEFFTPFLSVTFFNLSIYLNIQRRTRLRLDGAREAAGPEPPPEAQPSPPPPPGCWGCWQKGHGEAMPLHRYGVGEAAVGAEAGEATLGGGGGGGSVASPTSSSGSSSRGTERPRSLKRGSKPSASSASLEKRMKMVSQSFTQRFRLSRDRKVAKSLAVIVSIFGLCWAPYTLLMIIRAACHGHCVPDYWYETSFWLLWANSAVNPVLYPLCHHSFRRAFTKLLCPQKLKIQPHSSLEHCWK
Description: as §1

HTR1D = HTR1D (Homo sapiens, UniProt P28221); experiment: cell-based; parameters: PRESTO-Tango beta-arrestin2 recruitment, luciferase luminescence, concentration-response; conditions: HTLA, Assay=Tango, agonist mode, % of control agonist
Chain of HTR1D (P28221 whole entry): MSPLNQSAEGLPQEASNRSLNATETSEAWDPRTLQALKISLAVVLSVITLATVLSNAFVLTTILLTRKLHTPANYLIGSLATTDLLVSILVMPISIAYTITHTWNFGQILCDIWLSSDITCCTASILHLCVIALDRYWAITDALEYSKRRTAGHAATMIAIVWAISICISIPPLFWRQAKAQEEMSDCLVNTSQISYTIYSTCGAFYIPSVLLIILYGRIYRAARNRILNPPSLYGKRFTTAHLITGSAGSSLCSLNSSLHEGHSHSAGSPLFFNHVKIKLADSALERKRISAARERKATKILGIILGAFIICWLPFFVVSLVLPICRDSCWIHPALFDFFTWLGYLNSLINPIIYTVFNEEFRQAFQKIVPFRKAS
Description: as §1

5-HT2C = target: T6, 5-HT2C (Homo sapiens, UniProt P28335); experiment: competitive radioligand binding, HEK293 membranes
T6 construct: gene HTR2C; full-length receptor; HEK293 cell membranes
T6 sequence (P28335 33-458): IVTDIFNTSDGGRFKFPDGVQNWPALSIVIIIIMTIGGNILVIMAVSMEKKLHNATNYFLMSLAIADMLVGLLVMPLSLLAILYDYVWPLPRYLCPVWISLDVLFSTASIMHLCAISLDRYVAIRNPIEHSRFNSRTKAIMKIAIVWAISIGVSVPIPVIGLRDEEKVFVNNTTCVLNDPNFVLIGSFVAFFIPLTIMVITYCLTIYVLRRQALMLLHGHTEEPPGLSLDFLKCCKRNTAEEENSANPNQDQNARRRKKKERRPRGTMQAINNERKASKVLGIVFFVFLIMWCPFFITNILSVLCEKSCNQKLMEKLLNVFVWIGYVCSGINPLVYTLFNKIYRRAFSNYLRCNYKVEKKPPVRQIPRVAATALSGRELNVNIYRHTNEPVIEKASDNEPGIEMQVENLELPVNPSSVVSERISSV
Text: competitive radioligand binding, HEK293 membranes on 5-HT2C

[1] = read-out: N-Desmethyl Xanomeline

T1 sequence (P08913 whole entry): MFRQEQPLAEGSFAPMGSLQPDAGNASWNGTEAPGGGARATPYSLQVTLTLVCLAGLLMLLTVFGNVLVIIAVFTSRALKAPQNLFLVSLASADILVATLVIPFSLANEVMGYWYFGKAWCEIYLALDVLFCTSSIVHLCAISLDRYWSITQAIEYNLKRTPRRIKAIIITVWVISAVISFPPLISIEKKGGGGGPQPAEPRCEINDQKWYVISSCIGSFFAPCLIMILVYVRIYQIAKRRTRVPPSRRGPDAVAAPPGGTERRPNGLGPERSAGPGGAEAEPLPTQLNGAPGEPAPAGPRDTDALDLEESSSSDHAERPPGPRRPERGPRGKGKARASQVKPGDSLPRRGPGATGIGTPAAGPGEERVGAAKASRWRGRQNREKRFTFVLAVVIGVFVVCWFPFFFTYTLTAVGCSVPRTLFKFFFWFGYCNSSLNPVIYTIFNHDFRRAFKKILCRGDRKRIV

Q: Which results are given for CCCCCCOc1nsnc1C1=CCCNC1 [N-desmethylxanomeline]?
A: pKi (α2A): 6.36; pKi (α2C): 6.68; Emax (CHRM5; [1]): 48.2%; Emax (HRH4; [1]): 10.4%; Emax (CHRM3; [1]): 32.1%; Emax (CHRM4; [1]): 67.5%; Emax (CHRM1; [1]): 28.4%; Emax (HRH3; [1]): 16.8%; Emax (HTR1D; [1]): 51.2%; pKi (5-HT2C): 6.49

Q: CCCCCCOc1nsnc1C1=CCCN(C)C1 [Xanomeline] was tested. Which pKi (α2A) did it give?
A: 6.02

Q: And the pKi (α2C)?
A: 6.80

Q: And the Emax (CHRM5; read-out: Xanomeline)?
A: 70.1%

Q: And the Emax (HRH4; read-out: Xanomeline)?
A: 37.3%

Q: What about the Emax (CHRM3; read-out: Xanomeline) of the same molecule?
A: 42.8%

Q: And the Emax (CHRM4; read-out: Xanomeline)?
A: 72.5%

Q: And the Emax (CHRM1; read-out: Xanomeline)?
A: 67%

Q: What about the Emax (HRH3; read-out: Xanomeline) of the same molecule?
A: 2.89%

Q: And the Emax (HTR1D; read-out: Xanomeline)?
A: 73.3%

Q: And the pKi (5-HT2C)?
A: 6.69

Reference: article doi:10.1101/2025.11.20.689572v1 (biorxiv, 2025)
